For series [1], the system named is Sprague-Dawley rats. The series is described as follows: Home cage feeding test (HCFT). Format: in vivo, rat. Particulars: naïve rats, Luma 1 mg/kg IP days 1 and 3; control 6.0. The source says: Novelty Suppressed Feeding Test (NSFT). This test measures consumption of a familiar food in a novel environment, relying on rodents' aversion to eating in a novel environment after a period of food deprivation ([…] and Dulawa, “Identifying fast-onset antidepressants using rodent models,” Mol. Psychiatry 22:656-665 (2017)). Rats are food-deprived overnight and placed in an open field (76.5×76.5×40 cm^3) with a small amount of food pellets (6 pellets total). At the time of the test, rats are exposed to the open field for the first time (novelty) and allowed to explore it for a maximum of 15 minutes under red light. The latency for the animal to approach the food pellets and take its first bite is manually scored. A home cage feeding test (HCFT) is performed afterwards to ensure latency measured in NSFT is not a matter of difference in hunger. A home cage food intake analysis evaluated the amount of food eaten (in grams) over a period of 10 minutes following the end of the entire test session.

Series [2] concerns Sprague-Dawley rats. The series is described as follows: Female urine sniffing test (FUST), LPS-induced anhedonia. The class given is in vivo, rat. Particulars: LPS 1 mg/kg SC. The source says: All other reagents are obtained in the highest purity available from Sigma-Aldrich (St. Louis, MO) unless otherwise noted. […] Sigma-Aldrich, ref #0127: B8) diluted in 0.9% injectable saline while control group animals receive injections of all vehicles matching the experimental conditions. […] Behavioral Evaluation. […] Reward Sniffing Test (also known also as female urine sniffing test (FUST)): In this anhedonia-based assay, rats are brought to a well-ventilated testing room under dim lighting. A sterile cotton-tipped applicator is attached to one wall in the home cage for 1 hour to habituate rats to this new object. For the 2 phases of the 5 minute test, rats are first exposed to a new cotton tip dipped in sterile water as a control that is removed at the end of the 5 minutes; 45 minutes later, another cotton tip previously dipped into fresh rat urine collected from females of the same strain is attached to the cage wall. Male behavior is video recorded and latency to first sniff of the cotton tip and total time spent sniffing the cotton-tipped applicator are determined. In a pilot study, a dose response curve is conducted with varying doses of LPS to select an optimal dose for inducing an anhedonic response in rats. […] SC). […] Control rats are administered saline instead of LPS and vehicle instead of lumateperone. Anhedonia is assessed using FUST (female urine sniffing test) and measuring latency to sniff the reward combined with time spent sniffing the reward. Latency sniffing water is used as a control. The results are shown in the table below (time in seconds) with outliers removed using the MAD Method: […]

The subject of series [3] is Sprague-Dawley rats. The series is described as follows: Novelty Induced Hypophagia (NIH). The class given is in vivo, rat. The following applies: naïve rats, Luma 1 mg/kg IP days 1 and 3; control 65.4. The procedure:
Behavioral Evaluation. All behavioral tests are performed in the morning with adult male Sprague-Dawley rats (n=9-11 per group for the experiments with LPS, and n=13-14 per group for the naïve rats).
Novelty Induced Hypophagia (NIH). This conflict-based behavioral task assesses the impact of environmental stressors on conditioned approach response for a palatable food reward (Ramaker and Dulawa, 2017). Rats are habituated with diluted (1:3 milk/water) sweetened condensed milk which is accessible in their home cage for 1 hour each day for 3 consecutive days. Initially, animals are tested in their home cage under normal lighting. For testing after drug treatment, the latency to drink is recorded after rats are placed in a novel clean cage of the same dimensions with no bedding and under dim lighting (˜50 lux) with white paper under the cages to enhance aversion.
Basal levels of anxiety are also tested using 2 commonly used tests, NSFT and novelty induced hypophagia (NIH), in the absence of LPS. It is well documented that rodents experience increased stress levels when placed in a novel environment (Ramaker and Dulawa, 2017). These two tests exploit this feature by measuring latency to feed in food-deprived rats (NSFT), or latency to receive a reward to which they have been habituated prior to the test (NIH).

Another series relates to Corticosterone. The series is described as follows: Serum corticosterone (ELISA) after acute restraint stress. Format: in vivo, mouse. Particulars: restraint stress 2 h + Luma 3 mg/kg IP; control 22.65, stressed 238.5. The procedure:
Restraint Stress Protocol.
Using similar procedures as described above, serum corticosterone levels and hippocampal Cldn5 mRNA expression are measured as well (corticosterone is measured using a commercial ELISA kit).

For series [4], the system named is patients with schizophrenia. The series is described as follows: Phase 3 clinical trial in schizophrenia with acute exacerbation of psychosis. Format: in vivo, human. Particulars: 60 mg or 40 mg lumateperone tosylate once daily for 28 days vs placebo. The procedure: A randomized, double-blind, placebo-controlled, phase 3 clinical trial was conducted with 450 patients with schizophrenia, aged 18 to 60 years, who were experiencing an acute exacerbation of psychosis. Patients were included if they were experiencing an acute exacerbation of psychosis, defined as a total score on the Brief Psychiatric Rating Scale of […] or higher, with a score of 4 or higher on 2 or more positive symptoms, and onset of the acute episode within 4 weeks of screening. Patients were required to have a score of 4 or higher, indicating moderate to severe disease severity, on the Clinical Global Impression-Severity of Illness (CGI-S) at screening and baseline. […]
The primary efficacy end point was mean change from baseline to day 28 in the Positive and Negative Syndrome Scale (PANSS) total score versus placebo. […] The PANSS subscale scores, social function, safety, and tolerability were also assessed. Primary and key secondary efficacy measures were assessed weekly. Safety was assessed by treatment-emergent adverse events (TEAEs), modified physical examinations, 12-lead electrocardiograms (ECGs), vital signs, and clinical laboratory tests (blood and urine samples for clinical laboratory analysis were collected from all subjects upon screening and on Days 1, 8, 28, and 33, following overnight fast).

`CN1CCN2c3c(cccc31)[C@@H]1CN(CCCC(=O)c3ccc(F)cc3)CC[C@@H]12` [Lumateperone, 4-((6bR,10aS)-3-methyl-2,3,6b,9,10,10a-hexahydro-1H-pyrido[3′,4′: 4,5]pyrrolo[1,2,3-de]quinoxaline-8 (7H)-yl)-1-(4-fluorophenyl)-1-butanone]: the “Control HCFT food eaten” value in the series with Sprague-Dawley rats [1] came out at 6.0 g. Moreover, the “FUST Time sniffing reward” value in the series on Sprague-Dawley rats [2] (Luma 1 mg/kg IP 24 h before and 24 h after LPS, control 16.99, LPS + Vehicle 11.11) stood at 17.38 s. For the same molecule, the “FUST Latency sniffing reward” value in the series on Sprague-Dawley rats [2] (Luma 1 mg/kg IP 24 h before and 24 h after LPS, control 28.00, LPS + Vehicle 164.2) was determined as 68.13 s. In addition, the “FUST Latency sniffing water” value in the series with Sprague-Dawley rats [2] (control test, Luma 1 mg/kg IP before and after LPS, control 190.56, LPS + Vehicle 274.27) was 207.60 s. Moreover, the “NIH - novel cage latency to drink” value in the series with Sprague-Dawley rats [3] is recorded as 30.5 s. In addition, the “Serum concentration Corticosterone” value in the series with Corticosterone was 167.3 ng/mL. In addition, in series [4], the “efficacy on symptoms of schizophrenia (PANSS total score, CGI-S)” value was “effective for improving the symptoms of schizophrenia”; the safety and tolerability entry is given as “favorable safety profile”.

Values taken from patent US20250195510A1, “NOVEL METHODS” (priority 2022, published 2025).
